Data as given in article PMC11052071, “Novel JAK Inhibitors to Reduce Graft-Versus-Host Disease after Allogeneic Hematopoietic Cell Transplantation in a Preclinical Mouse Model” (Molecules, 2024).

Key:
[1] = Mouse PK after subcutaneous injection; format: in vivo; details: 2 mg/kg s.c., CD-1 mice, time points up to 6 h; WU derivatives compared to BARI
TYK2 = TYK2 (Homo sapiens, UniProt P29597); assay: Z'-LYTE enzyme activity assay (SelectScreen Kinase Profiling), TYK2
[2] = test system: phosphorylation of STAT1, STAT3, and STAT5; assay: STAT phosphorylation in primary human T cells (Western blotting); format: cell-based; details: starvation 1 h, stimulated with 10 ng/mL IFN-α
Description: Subsequently, we examined the ability of WU4 and WU8 to inhibit JAK signaling by measuring the levels of phosphorylation of STATs, downstream transcription factors of JAK signaling. […] This inhibitory capacity of WU4 and WU8 correlates with their IC50 values (Figure 1J) and the ability to reduce CXCR3 expression (Figure 3). We then decided to further investigate WU4 and WU8 as potent novel JAK inhibitors for the prevention of GvHD in our preclinical mouse model of allo-HCT.
Figure 4 Effect of WU4 and WU8 on the inhibition of JAK signaling in primary human T cells. STAT phosphorylation was determined as the indicator of JAK signaling. Primary human T cells were obtained from the peripheral blood of healthy donors. […] The phosphorylation of STATs was measured by Western blotting. Total […] and GAPDH served as loading controls.

GvHD = assay: Preclinical mouse model of allo-HCT (GvHD); format: in vivo, Balb/c recipient mice; details: for % of recipient and donor BM-derived APCs in spleens / % of CD80-expressing donor-derived APCs in spleens / % of Tregs in the spleens: 20 mg/kg s.c., day 6 after allo-HCT; for % of recipient and donor BM-derived APCs in spleens: vs control
Description: To determine the potential of WU4 and WU8 in preventing GvHD, we performed allo-HCT in which 5 × 10^6 T cell-depleted bone marrow (TCD-BM; CD45.1+) and 5 × 10^5 splenic pan T cells (CD45.2+) obtained from B6 mice were transplanted into lethally irradiated (900 cGy on day −1) Balb/c allogeneic recipient mice on day 0. […]. […] Among monocyte subsets, we only considered classical (LyG6^−CD11b^+Ly6C^high) and intermediate monocytes (LyG6^−CD11b^+Ly6C^middle) as APCs, excluding non-classical monocytes (LyG6^−CD11b^+Ly6C^low) due to their anti-inflammatory function, which downregulates antigen presentation during inflammation. […]
Figure 5 In vivo administration of WU4 and WU8 reduces GvHD by increasing % of Tregs while suppressing % of APCs and costimulatory proteins on APCs after allo-HCT. Allo-HCT was performed as follows: 5 × 10^6 TCD-BM (CD45.1+) and 5 × 10^5 splenic T cells (CD45.2+) obtained from B6 mice were transplanted on day 0 into lethally irradiated (900 cGy on day −1) Balb/c allogeneic recipient mice. TCD-BM-only group served as a no-GvHD control. […] (A,B) The mice were monitored for survival and GvHD signs. (C–F) Whole splenocytes were analyzed for % of Tregs, recipient/BM-derived APCs, and CD80-expressing APCs on day 6 after allo-HCT. LyG6^−CD11b^+Ly6C^high and LyG6^−CD11b^+Ly6C^middle served as classical and intermediate monocyte subsets. NT: neutrophils. * p < 0.05, ** p < 0.01, and *** p < 0.001. All error bars are represented as mean ± standard deviation.
Allo-HCT was performed as previously described. Briefly, BALB/c mice were used as recipients and received 9 Gy total body irradiation on day −1, then were transplanted with 5 × 10^6 T cell-depleted bone marrow (TCD-BM) cells from B6 (CD45.1+) mice along with 0.5 × 10^6 splenic T cells from B6 (CD45.2+) mice on day 0. Mouse TCD-BM and splenic T cells were prepared using an EasySep mouse CD90.2 positive selection kit II and an EasySep mouse T cell isolation kit ([…] Technologies, Cambridge, MA, USA), respectively.
GvHD clinical scores were assessed twice per week by a scoring system incorporating five clinical criteria: weight loss (diarrhea scored 1 regardless of weight change), posture (hunching), mobility, fur texture, and skin integrity, as previously described. Individual mice were scored from 0 to 2 for each criterion and were sacrificed with GvHD scores of 6 or above, following our approved animal protocol.
T cells from in vitro primary murine T cell culture, fresh peripheral blood, or whole splenocytes were analyzed according to cell surface and intracellular markers. Surface markers were directly stained with flow antibodies for 20 min at 4 °C. For intracellular staining (FOXP3 and T-bet), cells were fixed and permeabilized after surface staining using appropriate buffers (One-step intracellular nuclear protein staining protocol, eBioscience, San Diego, CA, USA) and stained with flow antibodies. The antibodies used for flow cytometric analyses for mouse cells were as follows: FOXP3, T-BET, and CD183 (eBioscience, San Diego, CA, USA); CD3, H2-Kb, H2-Kd, CD4, B220, CD11b, CD11c, Ly6C, and DEC205 (BioLegend, San Diego, CA); and CD8, CD45.2, CD80, and Ly6G (BD Pharmingen, San Jose, CA, USA). All cells were run on a ZE5 Cell Analyzer (BD Biosciences, Mountain View, CA, USA) or Attune® NxT (Thermofisher Scientific, Waltham, MA, USA) and analyzed with the FlowJo software, version 10.9.0 (FlowJo LLC., Ashland, OR, USA).

JAK2 = JAK2 (Homo sapiens, UniProt O60674); assay: Z'-LYTE enzyme activity assay (SelectScreen Kinase Profiling), JAK2
JAK2, sequence (O60674 whole entry): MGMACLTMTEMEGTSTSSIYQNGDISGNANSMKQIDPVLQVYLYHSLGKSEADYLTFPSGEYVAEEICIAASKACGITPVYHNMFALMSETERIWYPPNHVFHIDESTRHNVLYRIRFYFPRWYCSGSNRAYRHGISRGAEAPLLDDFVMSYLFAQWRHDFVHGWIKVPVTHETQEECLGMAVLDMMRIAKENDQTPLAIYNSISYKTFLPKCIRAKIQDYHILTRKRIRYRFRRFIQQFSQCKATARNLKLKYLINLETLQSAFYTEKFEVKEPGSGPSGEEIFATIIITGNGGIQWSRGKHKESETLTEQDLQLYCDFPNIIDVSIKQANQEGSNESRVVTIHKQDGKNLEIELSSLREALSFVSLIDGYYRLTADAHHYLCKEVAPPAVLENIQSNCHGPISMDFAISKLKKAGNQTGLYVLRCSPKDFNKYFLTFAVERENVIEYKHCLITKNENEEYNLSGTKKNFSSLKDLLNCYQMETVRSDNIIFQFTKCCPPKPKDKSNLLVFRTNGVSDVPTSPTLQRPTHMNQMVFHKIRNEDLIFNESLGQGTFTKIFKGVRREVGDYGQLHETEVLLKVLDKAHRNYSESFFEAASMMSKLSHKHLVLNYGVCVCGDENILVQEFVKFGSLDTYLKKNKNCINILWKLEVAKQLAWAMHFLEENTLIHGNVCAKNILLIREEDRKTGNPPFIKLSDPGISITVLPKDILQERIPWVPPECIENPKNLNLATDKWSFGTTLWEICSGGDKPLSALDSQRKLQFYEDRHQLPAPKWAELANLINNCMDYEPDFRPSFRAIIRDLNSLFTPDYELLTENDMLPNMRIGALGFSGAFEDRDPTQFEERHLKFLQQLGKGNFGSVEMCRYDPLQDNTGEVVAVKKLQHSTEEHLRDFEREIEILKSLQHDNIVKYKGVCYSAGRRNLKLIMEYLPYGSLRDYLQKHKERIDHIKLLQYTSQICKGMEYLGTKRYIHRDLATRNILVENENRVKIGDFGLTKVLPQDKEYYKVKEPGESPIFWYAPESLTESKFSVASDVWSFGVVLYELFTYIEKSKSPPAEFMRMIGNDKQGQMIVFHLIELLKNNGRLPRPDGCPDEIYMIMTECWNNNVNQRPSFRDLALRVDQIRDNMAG

[3] = 20 mg/kg s.c. once daily for 3 weeks from day 3, vs vehicle control
[4] = dose not given, compared to WU4
[5] = 4 mg/kg s.c. once daily for 3 weeks from day 3, vs vehicle control

TYK2, sequence (P29597 whole entry): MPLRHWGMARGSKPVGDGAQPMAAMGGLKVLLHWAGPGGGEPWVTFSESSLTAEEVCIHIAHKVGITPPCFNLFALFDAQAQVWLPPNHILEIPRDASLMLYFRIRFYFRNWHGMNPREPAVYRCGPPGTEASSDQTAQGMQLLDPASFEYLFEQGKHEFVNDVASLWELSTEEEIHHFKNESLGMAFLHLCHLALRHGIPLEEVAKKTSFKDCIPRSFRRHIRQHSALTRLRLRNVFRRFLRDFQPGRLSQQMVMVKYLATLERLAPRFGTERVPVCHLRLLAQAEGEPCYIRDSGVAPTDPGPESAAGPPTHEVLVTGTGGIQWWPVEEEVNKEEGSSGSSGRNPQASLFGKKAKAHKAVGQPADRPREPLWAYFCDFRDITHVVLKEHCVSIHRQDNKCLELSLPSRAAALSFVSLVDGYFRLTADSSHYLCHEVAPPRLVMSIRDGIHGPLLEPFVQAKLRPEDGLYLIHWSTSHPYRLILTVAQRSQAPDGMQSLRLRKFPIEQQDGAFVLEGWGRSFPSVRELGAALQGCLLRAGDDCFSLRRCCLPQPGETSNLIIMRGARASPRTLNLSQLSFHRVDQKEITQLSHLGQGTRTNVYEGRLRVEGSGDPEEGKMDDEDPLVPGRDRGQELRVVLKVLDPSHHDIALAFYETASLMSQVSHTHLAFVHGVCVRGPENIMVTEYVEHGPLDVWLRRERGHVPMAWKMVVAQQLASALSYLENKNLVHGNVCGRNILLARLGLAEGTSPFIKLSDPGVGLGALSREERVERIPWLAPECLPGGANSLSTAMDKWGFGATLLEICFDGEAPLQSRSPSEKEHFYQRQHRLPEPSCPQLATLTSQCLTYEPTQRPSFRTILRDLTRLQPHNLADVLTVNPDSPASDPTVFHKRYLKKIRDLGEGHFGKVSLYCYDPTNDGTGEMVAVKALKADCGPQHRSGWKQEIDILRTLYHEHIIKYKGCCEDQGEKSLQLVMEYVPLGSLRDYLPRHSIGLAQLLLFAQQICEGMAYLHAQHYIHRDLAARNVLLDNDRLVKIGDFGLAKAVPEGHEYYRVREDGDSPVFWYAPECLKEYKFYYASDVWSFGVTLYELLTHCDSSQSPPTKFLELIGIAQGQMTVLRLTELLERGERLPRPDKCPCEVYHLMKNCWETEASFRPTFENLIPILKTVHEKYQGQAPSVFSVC

SMILES	plasma drug concentration (mouse PK) [1]	IC50 (TYK2; IC50 TYK2, ATP at 1 mM) [nM]	IC50 (TYK2; IC50 TYK2, ATP at app. Km) [nM]	phosphorylation of STATs [2]	clinical GvHD scores (GvHD; [3])	overall survival (GvHD; [3])	% of recipient and donor BM-derived APCs in spleens (GvHD)	% of CD80-expressing donor-derived APCs in spleens (GvHD; vs vehicle control)	% of Tregs in the spleens (GvHD; vs vehicle control)	IC50 (JAK2; IC50 JAK2, ATP at 1 mM) [nM]	IC50 (JAK2; IC50 JAK2, ATP at app. Km) [nM]	clinical GvHD scores (GvHD; [4])	overall survival (GvHD; [4])	percentage of donor-BM-derived B and T cells in the PB (GvHD; dose not given, day 27 after allo-HCT, compared to WU4)	clinical GvHD scores (GvHD; [5])	overall survival (GvHD; [5])
CCS(=O)(=O)NC1CC2(C1)CC(CC#N)(n1cc(-c3ncnc4[nH]ccc34)cn1)C2 (stereo not shown) [WU4]	comparable PK to BARI throughout all time points	1.09	0.417	inhibit the phosphorylation of STAT1, STAT3, and STAT5	did not significantly improve GvHD	failed to provide any survival benefits	reducing the % of donor-derived CD11b+ APCs	reducing the % of donor-derived CD11b+ APCs and CD80-expressing B cells	significantly increasing the % of Tregs	2.26	0.133	–	–	–	–	–
N#CCC1(n2cc(-c3ncnc4[nH]ccc34)cn2)CC2(CC(NS(=O)(=O)C(F)(F)F)C2)C1 (stereo not shown) [WU6]	–	6.48	0.766	–	–	–	–	–	–	6.96	0.347	significantly less clinical GvHD scores	improved overall survival	increased percentage of donor-BM-derived B and T cells	–	–
N#CCC1(n2cc(-c3ncnc4[nH]ccc34)cn2)CCS(=O)(=O)CC1 [WU8]	significant increase in plasma drug concentration at 2 h post-dose	49.1	2.84	inhibit the phosphorylation of STAT1, STAT3, and STAT5	improved clinical GvHD scores	significantly increased overall survival	reduced the % of both the residual recipient and donor BM-derived APCs	decreased	trend towards higher frequencies of Tregs	14.9	0.535	–	–	–	less GvHD	mild trend towards improved survival
